Laboratory results: paper PMC8003416, “Modulation of Human Phenylalanine Hydroxylase by 3-Hydroxyquinolin-2(1H)-One Derivatives” (Biomolecules, 2021)

Tests used:
[1] = molecular target: T1, human phenylalanine hydroxylase (hPAH) (Homo sapiens, UniProt P00439); assay: Time-dependent loss of hPAH activity at 42 °C; format: biochemical; settings: 100 μM compound; for protective effect on hPAH activity over time: up to 120 min at 42 °C; for remaining activity at 100 µM: read-out: hPAH residual activity, % of control sample
T1 construct: Recombinant full-length wild-type (WT) hPAH was expressed in E. coli Top10 cells in fusion with a hexa-histidyl peptide; made in house; host or cells: E. coli Top10
T1 sequence (P00439 1-452): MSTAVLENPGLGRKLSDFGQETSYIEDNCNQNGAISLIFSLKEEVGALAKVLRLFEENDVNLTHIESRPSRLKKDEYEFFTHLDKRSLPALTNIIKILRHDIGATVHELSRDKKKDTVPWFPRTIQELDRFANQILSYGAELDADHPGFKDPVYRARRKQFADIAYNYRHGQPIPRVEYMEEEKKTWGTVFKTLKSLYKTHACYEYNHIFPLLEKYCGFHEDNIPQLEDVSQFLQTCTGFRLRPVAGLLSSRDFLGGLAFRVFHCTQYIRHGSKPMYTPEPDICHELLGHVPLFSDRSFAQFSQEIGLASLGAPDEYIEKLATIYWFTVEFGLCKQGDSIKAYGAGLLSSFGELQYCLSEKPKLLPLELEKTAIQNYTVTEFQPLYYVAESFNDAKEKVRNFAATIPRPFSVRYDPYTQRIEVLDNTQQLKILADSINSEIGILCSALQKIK
Method: The hPAH time-dependent loss of activity at a fixed temperature was assessed in a period of 120 min, in the absence and presence of compounds. In these assays, the enzymatic reaction was performed essentially as described above for the Phe/3HQ-A condition. Compounds (100 μM) were pre-incubated with the enzyme at 42 °C. After a 30, 45, 60, 90 and 120 min period, an aliquot of the protein (5 μg) was incubated, at 37 °C, with 100 μM L-Phe for 4 min, and the reaction proceeded as above at 37 °C [19].

[2] = molecular target: T2, hPAH non-heme ferric center (Homo sapiens, UniProt P00439); assay: Electron paramagnetic resonance spectroscopy; settings: ≈100 μM hPAH monomer, equimolar 3HQ, 4K
T2 construct: Recombinant full-length wild-type (WT) hPAH was expressed in E. coli Top10 cells in fusion with a hexa-histidyl peptide; made in house; host or cells: E. coli Top10
T2 sequence (P00439 1-452): T1 sequence (P00439 1-452)
Method: EPR spectra of hPAH (at ≈100 μM monomer) in the absence or presence of equimolar amounts of 3HQs were recorded at 4K in a Bruker EMX spectrometer (Billerica, MA, USA) equipped with an ESR-900 continuous flow helium cryostat from Oxford Instruments (Abingdon, Johnson, UK). Spectra were recorded for control samples containing 100 μM FeCl3 solutions incubated with equimolar amounts of 3HQs to evaluate direct binding of the compounds to free Fe^3+ in solution. Microwave frequency: 9.39 GHz; microwave power, 2 mW; modulation amplitude, 1 mT.

[3] = molecular target: T1, human phenylalanine hydroxylase (hPAH); assay: hPAH enzymatic activity assay (NA, 3HQ-A and Phe/3HQ-A conditions); format: biochemical; settings: 100 μM compound; for remaining activity at 100 µM: read-out: hPAH residual activity vs control
Method: The hPAH activity was measured essentially as previously described. Briefly, the enzymatic reaction was performed in a 200 μL final volume, containing 250 mM Na-HEPES, pH 7, 0.1 mg/mL catalase (Sigma-Aldrich; St. Louis, MO, USA), 5 μg (final concentration of 0.112 μM of tetramer) of recombinant hPAH tetramers and 100 μM (NH4)2Fe(II)SO4. Using 100 μM L-Phe and 100 μM of tested compound, three experimental conditions were used to study the compounds’ modulatory effect, namely: non activated (NA), 3HQ-activated (3HQ-A) and substrate/3HQ-activated (Phe/3HQ-A) (Supplementary Figure S3). The reaction was started by addition of 75 μM BH4 (Schircks Laboratories; Bauma, Switzerland) prepared in 5 mM ascorbic acid. In the NA assay, the L-Phe substrate and tested compounds were added together with 75 µM BH4 at the start of the hydroxylation reaction. In the 3HQ-A condition, hPAH was pre-incubated with the tested compound for 4 min at 25 °C and the reaction was started by the addition of BH4 together with L-Phe. In the Phe/3HQ-A condition, hPAH was pre-incubated simultaneously with L-Phe and the tested compound (4 min, 25 °C). Appropriate control reactions were performed where the compounds were omitted and 1% DMSO was used. Kinetic parameters were determined using variable concentrations of L-Phe (25 to 2500 μM) and fixed concentrations of BH4 (75 μM) and tested compound (100 μM). After a 1-min incubation, the reaction was stopped, and the amount of L-Tyr produced was quantified by HPLC as previously described. The specific hPAH enzymatic activity is expressed as nmol of L-Tyr produced during 1 min per mg of protein (nmol L-Tyr.min^−1.mg^−1). The steady-state kinetic data were analyzed by nonlinear regression analysis using GraphPad Prism (La Jolla, CA, USA). Data was fitted to the modified Hill equation accounting for cooperative substrate binding as well as substrate inhibition (Equation (1)), to the modified Michaelis–Menten equation which accounts for substrate inhibition (Equation (2)) and to the non-modified Michaelis–Menten equation:v = (Vmax + Vi ([S]^x/Ki^x))/(1 + (K^h/[S]^h) + ([S]^x/Ki^x))(1) v = (Vmax [S])/(Km + [S](1 + [S]/Ki))(2)

[4] = molecular target: T1, human phenylalanine hydroxylase (hPAH); assay: Limited proteolysis of hPAH by trypsin; settings: 100 μM in 1% DMSO, 25 °C, trypsin:hPAH 1:200; control 0.41 ± 0.03
Method: Limited proteolysis of purified hPAH was performed as previously described, at 25 °C in SEC buffer and with a trypsin (Sigma-Aldrich) to hPAH ratio of 1:200 (by mass; final hPAH protein concentration 300 μg/mL), in the presence of 100 µM of 3HQ derivatives or 1% DMSO. Control assays were also performed in the presence of 100 μM and 1 mM L-Phe. At different time points (0 to 60 min), aliquots of the reaction were mixed with soybean trypsin inhibitor (Sigma-Aldrich) at a protease to inhibitor ratio of 1:1.5 (by mass) and analyzed by SDS-PAGE (10% polyacrylamide). The band corresponding to full-length hPAH was quantified by densitometric analysis using the Quantity One 1D software v4.6.3 (Bio-Rad). Data were fitted to a single exponential decay equation to obtain the decay constant of proteolysis (kP). Assays were performed in duplicate and data represent the mean ± SEM.

SMILES	protective effect on hPAH activity over time [1]	change of hPAH EPR spectrum [2]	fold activation by L-Phe (Phe/3HQ-A vs. 3HQ-A) ([3]; 100 μM L-Phe)	remaining activity at 100 µM ([3]; 3HQ-A condition (4 min pre-incubation with compound, 25 °C))	hPAH activity, fold increase vs control ([3]; NA (non-activated) condition, 100 μM L-Phe, 1% DMSO control)	remaining activity at 100 µM ([3]; Phe/3HQ-A condition (pre-incubation with L-Phe and compound))	proteolytic rate (kP) [4]	remaining activity at 100 µM ([1]; 60 min at 42 °C)	remaining activity at 100 µM ([1]; 90 min at 42 °C)	remaining activity at 100 µM ([1]; 120 min at 42 °C)	remaining activity at 100 µM ([3]; NA (non-activated) condition)	fold enzyme activation by compound (3HQ-A vs. NA) [3]
CCOC(=O)[C@H](Cc1ccccc1)NC(=O)c1c(O)c(=O)[nH]c2ccc(OC(F)(F)F)cc12 [Compound 3]	protective effect was not observed	significant increase in the intensity of this main band at g = 4.25	1.3 fold	69%	1.1 fold	57%	0.29 ± 0.04 min⁻¹	–	–	–	–	–
O=C(NCCc1ccccc1)c1c(O)c(=O)[nH]c2ccc(OC(F)(F)F)cc12 [Compound 8]	protective effect was not observed	less rhombic EPR signals appeared	1.7 fold	–	–	–	0.30 ± 0.01 min⁻¹	–	–	–	–	–
COC(=O)CC[C@H](NC(=O)c1c(O)c(=O)[nH]c2ccc(OC(F)(F)F)cc12)C(=O)OC [Compound 9]	–	less rhombic EPR signals appeared	1.4 fold	–	–	–	0.38 ± 0.04 min⁻¹	136 ± 7%	121 ± 32%	176 ± 32%	58%	–
COC(=O)CNC(=O)c1c(O)c(=O)[nH]c2ccc(OC(F)(F)F)cc12 [Compound 11]	–	less rhombic EPR signals appeared	1.5 fold	–	–	–	0.41 ± 0.01 min⁻¹	–	117 ± 33%	168 ± 64%	–	1.6 fold
N[C@@H](Cc1ccccc1)C(=O)O [L-Phe, L-phenylalanine, reference compound]	–	–	–	–	–	–	0.15 ± 0.01 min⁻¹	–	–	–	–	–
